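Dose response: 5 concentrations. Exposure: 48 h. Format: 96-well plates. Endpoint: linear interpolation; highest concentration if not reached. GI50: concentration for 50% inhibition of growth.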 Activity calls are given as the source filed them. Rule as the data show it: active = GI50 up to about 1.1 µM and inactive = higher.
Assays:
Experiment in all cases: NCI anticancer screen, dose series, 48 h
[1] = tested on: 786-0
[2] = tested on: A498
[3] = tested on: A549
[4] = tested on: ACHN
[5] = tested on: COLO 205
[6] = tested on: DMS-114
[7] = tested on: DMS-273
[8] = tested on: HOP-92
[9] = tested on: IGROV-1
[10] = tested on: KM-20L2
[11] = tested on: KM12
[12] = tested on: NCI-H23
[13] = tested on: OVCAR-5
[14] = tested on: RXF 393
[15] = tested on: SN12C
[16] = tested on: SNB-19
[17] = tested on: SNB-78
[18] = tested on: UACC-257

SMILES | GI50 [1] | GI50 [2] | GI50 [3] | GI50 [4] | GI50 [5] | GI50 [6] | GI50 [7] | GI50 [8] | GI50 [9] | GI50 [10] | GI50 [11] | GI50 [12] | GI50 [13] | GI50 [14] | GI50 [15] | GI50 [16] | GI50 [17] | GI50 [18]
COc1ccc(/C(Cl)=C(\C=O)c2ccc([N+](=O)[O-])cc2)cc1 | 13.3 µM (inactive) | 22.4 µM (inactive) | 17.7 µM (inactive) | 18.5 µM (inactive) | 19.1 µM (inactive) | 17.3 µM (inactive) | 20 µM (inactive) | 6.97 µM (inactive) | 22.4 µM (inactive) | 15 µM (inactive) | 2.4 µM (inactive) | 14 µM (inactive) | > 100 µM (inactive) | 11.5 µM (inactive) | 12.3 µM (inactive) | 18.5 µM (inactive) | 5.6 µM (inactive) | 10.1 µM (inactive)
COC(=O)CCC(=O)Nc1cccc(C(F)(F)F)c1 | > 100 µM (inactive) | > 100 µM (inactive) | > 100 µM (inactive) | > 100 µM (inactive) | > 100 µM (inactive) | > 100 µM (inactive) | > 100 µM (inactive) | > 100 µM (inactive) | > 100 µM (inactive) | > 100 µM (inactive) | > 100 µM (inactive) | > 100 µM (inactive) | > 100 µM (inactive) | > 100 µM (inactive) | > 100 µM (inactive) | > 100 µM (inactive) | > 100 µM (inactive) | > 100 µM (inactive)
CC(C)(C)[Si](C)(C)OC1C(=O)C[C@H]2CCCC[C@@H]12 (stereo partly drawn) | > 100 µM (inactive) | > 100 µM (inactive) | > 100 µM (inactive) | > 100 µM (inactive) | > 100 µM (inactive) | > 100 µM (inactive) | > 100 µM (inactive) | 20.2 µM (inactive) | > 100 µM (inactive) | > 100 µM (inactive) | > 100 µM (inactive) | > 100 µM (inactive) | > 100 µM (inactive) | > 100 µM (inactive) | > 100 µM (inactive) | > 100 µM (inactive) | > 100 µM (inactive) | > 100 µM (inactive)
CC[C@@H](C)[C@@H]1NC(=O)C(C(C)=O)=C1O | 22.4 µM (inactive) | 24.4 µM (inactive) | 26.4 µM (inactive) | 16.5 µM (inactive) | 17.9 µM (inactive) | 31.8 µM (inactive) | 24.4 µM (inactive) | 43.4 µM (inactive) | 25.6 µM (inactive) | 23.2 µM (inactive) | 15.6 µM (inactive) | 20.1 µM (inactive) | 40.7 µM (inactive) | 26.7 µM (inactive) | 25.1 µM (inactive) | 0.297 µM (active) | 23.3 µM (inactive) | 34.2 µM (inactive)
Cn1c(=O)cc2[nH]c3ccccc3n2c1=O | 24 µM (inactive) | > 100 µM (inactive) | > 100 µM (inactive) | 69.7 µM (inactive) | 14.2 µM (inactive) | > 100 µM (inactive) | 25.5 µM (inactive) | > 100 µM (inactive) | > 100 µM (inactive) | 77.4 µM (inactive) | > 100 µM (inactive) | > 100 µM (inactive) | > 100 µM (inactive) | 28.8 µM (inactive) | > 10 µM (inactive) | > 100 µM (inactive) | 86.5 µM (inactive) | > 100 µM (inactive)
COC(=O)[C@@]1(C(C)CC(=O)O)CCCCC1=O (stereo partly drawn) | 27 µM (inactive) | > 100 µM (inactive) | > 100 µM (inactive) | > 100 µM (inactive) | 50.7 µM (inactive) | 82.8 µM (inactive) | 19.9 µM (inactive) | > 100 µM (inactive) | > 100 µM (inactive) | > 100 µM (inactive) | > 100 µM (inactive) | > 100 µM (inactive) | > 100 µM (inactive) | > 100 µM (inactive) | > 100 µM (inactive) | > 100 µM (inactive) | > 100 µM (inactive) | > 100 µM (inactive)

From ChEMBL document CHEMBL1201862, “PubChem BioAssay data set” (2004)
